Measurements as given in patent US4029805A, “Semisynthetic penicillins” (Hoffmann-La Roche Inc., priority 1976, dated 1977).
Like-named read-outs stand apart in the source and are kept apart here.

Assays:
E. coli [1] = assay: Curative dose against systemic E. coli infection; type: in vivo, mice; conditions: Escherichia coli, in Mus musculus, po
Protocol: (§1) In order to illustrate the relative activity of the compounds of this invention as compared to amoxicillin, the compounds, represented by the acetaldehyde derivative, were tested orally against systemic bacterial infections of mice with the following results. The CD50 is the curative dose in 50% of the animals treated against a challenge organism.

E. coli [2] = assay: Curative dose against systemic E. coli infection; type: in vivo, mice; conditions: Escherichia coli, in Mus musculus, read-out: CD50 (the source's name)
S. aureus = assay: Curative dose against systemic S. aureus infection; type: in vivo, mice; conditions: Staphylococcus aureus, in Mus musculus, read-out: CD50 (the source's name)
S. schottmuelleri = assay: Curative dose against systemic S. schottmuelleri infection; type: in vivo, mice; conditions: Mus musculus
S. typhosa [3] = assay: Curative dose against systemic S. typhosa infection; type: in vivo, mice; conditions: Mus musculus, sc, read-out: CD50 (the source's name)
B. subtilis = assay: Stability in aqueous solution at room temperature, microbiological assay using B. subtilis; conditions: in words
Protocol: To illustrate the relative stability of the compounds of this invention in aqueous solution at room temperature the sodium salts of the compounds were tested as 20% by weight aqueous solutions for activity by microbiological assay using B. subtilis as the test organism and compared to 10% and 20% aqueous solutions of amoxicillin sodium salt and 10% aqueous solution of the acetone derivative of amoxicillin.

D. pneumoniae = assay: Curative dose against systemic D. pneumoniae infection; type: in vivo, mice; conditions: Streptococcus pneumoniae, in Mus musculus, read-out: CD50 (the source's name)
S. typhosa [4] = assay: Curative dose against systemic S. typhosa infection; type: in vivo, mice; conditions: Mus musculus, po
Protocol: as §1

K. pneumoniae = assay: Curative dose against systemic K. pneumoniae infection; type: in vivo, mice; conditions: Klebsiella pneumoniae, in Mus musculus, read-out: CD50 (the source's name)
S. pyogenes = assay: Curative dose against systemic S. pyogenes infection; type: in vivo, mice; conditions: Streptococcus pyogenes, in Mus musculus, read-out: CD50 (the source's name)
[5] = Table 3(b), acetaldehyde derivative comparison, read-out: CD50 (the source's name)
[6] = read-out: CD50, Table 2, PO, mice
[7] = po, benzaldehyde derivative comparison
[8] = po, butyraldehyde derivative comparison
[9] = po, hexaldehyde derivative comparison
[10] = po, propionaldehyde derivative comparison
[11] = sc, Table 3(b), sc, acetaldehyde derivative comparison
[12] = sc, benzaldehyde derivative comparison
[13] = sc, butyraldehyde derivative comparison
[14] = sc, hexaldehyde derivative comparison
[15] = sc, propionaldehyde derivative comparison
[16] = po, Table 3(b), po, acetaldehyde derivative comparison

CC1(C)S[C@@H]2[C@H](NC(=O)[C@H](N)c3ccc(O)cc3)C(=O)N2[C@H]1C(=O)O [Amoxicillin, 6[(-)-alpha-amino-para-hydroxyphenylacetamido]-penicillanic acid]
ED50 (E. coli [1]; [5]): 6.4 mg/kg
ED50 (E. coli [1]; [6]): 6.4 mg/kg
ED50 (E. coli [2]; [7]): 16 mg/kg
ED50 (E. coli [2]; [8]): 15 mg/kg
ED50 (E. coli [2]; [9]): 10 mg/kg
ED50 (E. coli [2]; [10]): 11 mg/kg
ED50 (E. coli [2]; [11]): 10 mg/kg
ED50 (E. coli [2]; [12]): 5.9 mg/kg
ED50 (E. coli [2]; [13]): 6 mg/kg
ED50 (E. coli [2]; [14]): 2.5 mg/kg
ED50 (E. coli [2]; [15]): 3.4 mg/kg
ED50 (S. aureus; po, Table 2, PO, mice): 1.2 mg/kg
ED50 (S. aureus; [16]): 1.2 mg/kg
ED50 (S. aureus; [7]): 4 mg/kg
ED50 (S. aureus; [8]): 0.29 mg/kg
ED50 (S. aureus; [9]): 0.72 mg/kg
ED50 (S. aureus; [10]): 0.41 mg/kg
ED50 (S. aureus; [11]): 2 mg/kg
ED50 (S. aureus; [12]): 0.16 mg/kg
ED50 (S. aureus; [13]): 0.5 mg/kg
ED50 (S. aureus; [14]): 0.79 mg/kg
ED50 (S. aureus; [15]): 0.47 mg/kg
ED50 (S. schottmuelleri; po, Table 3(b), po, acetaldehyde derivative comparison, read-out: CD50 (the source's name)): 5.3 mg/kg
ED50 (S. schottmuelleri; po, benzaldehyde derivative comparison, read-out: CD50 (the source's name)): 5.5 mg/kg
ED50 (S. schottmuelleri; po, butyraldehyde derivative comparison, read-out: CD50 (the source's name)): 5.9 mg/kg
ED50 (S. schottmuelleri; po, hexaldehyde derivative comparison, read-out: CD50 (the source's name)): 4.4 mg/kg
ED50 (S. schottmuelleri; po, propionaldehyde derivative comparison, read-out: CD50 (the source's name)): 5.7 mg/kg
ED50 (S. schottmuelleri; po, read-out: CD50, Table 2, PO, mice): 5.3 mg/kg
ED50 (S. schottmuelleri; sc, Table 3(b), sc, acetaldehyde derivative comparison, read-out: CD50 (the source's name)): 6.5 mg/kg
ED50 (S. schottmuelleri; sc, benzaldehyde derivative comparison, read-out: CD50 (the source's name)): 6.7 mg/kg
ED50 (S. schottmuelleri; sc, butyraldehyde derivative comparison, read-out: CD50 (the source's name)): 2.3 mg/kg
ED50 (S. schottmuelleri; sc, hexaldehyde derivative comparison, read-out: CD50 (the source's name)): 1 mg/kg
ED50 (S. schottmuelleri; sc, propionaldehyde derivative comparison, read-out: CD50 (the source's name)): 6.1 mg/kg
ED50 (S. typhosa [3]; Table 3(b), acetaldehyde derivative comparison): 6.3 mg/kg
ED50 (S. typhosa [3]; benzaldehyde derivative comparison): 0.56 mg/kg
ED50 (S. typhosa [3]; butyraldehyde derivative comparison): 1.3 mg/kg
ED50 (S. typhosa [3]; hexaldehyde derivative comparison): 3.3 mg/kg
ED50 (S. typhosa [3]; propionaldehyde derivative comparison): 2.8 mg/kg
stability in solution (B. subtilis): very short stability in parenteral solutions
ED50 (D. pneumoniae; po, Table 2, PO, mice): 10 mg/kg
ED50 (D. pneumoniae; [16]): 10 mg/kg
ED50 (D. pneumoniae; [7]): < 0.2 mg/kg
ED50 (D. pneumoniae; [8]): 2.7 mg/kg
ED50 (D. pneumoniae; [9]): 0.75 mg/kg
ED50 (D. pneumoniae; [10]): 1.1 mg/kg
ED50 (D. pneumoniae; [11]): 0.53 mg/kg
ED50 (D. pneumoniae; [12]): 0.14 mg/kg
ED50 (D. pneumoniae; [13]): 3.2 mg/kg
ED50 (D. pneumoniae; [14]): 0.07 mg/kg
ED50 (D. pneumoniae; [15]): 0.19 mg/kg
ED50 (S. typhosa [4]; [5]): 5 mg/kg
ED50 (S. typhosa [4]; benzaldehyde derivative comparison, read-out: CD50 (the source's name)): 1.3 mg/kg
ED50 (S. typhosa [4]; butyraldehyde derivative comparison, read-out: CD50 (the source's name)): 3.3 mg/kg
ED50 (S. typhosa [4]; hexaldehyde derivative comparison, read-out: CD50 (the source's name)): 3.7 mg/kg
ED50 (S. typhosa [4]; propionaldehyde derivative comparison, read-out: CD50 (the source's name)): 3.8 mg/kg
ED50 (S. typhosa [4]; [6]): 5.4 mg/kg
ED50 (K. pneumoniae; po, Table 2, PO, mice): 10 mg/kg
ED50 (K. pneumoniae; [16]): 10 mg/kg
ED50 (K. pneumoniae; [7]): 75 mg/kg
ED50 (K. pneumoniae; [8]): 58 mg/kg
ED50 (K. pneumoniae; [9]): 59 mg/kg
ED50 (K. pneumoniae; [10]): 16 mg/kg
ED50 (K. pneumoniae; [11]): 12 mg/kg
ED50 (K. pneumoniae; [12]): 100 mg/kg
ED50 (K. pneumoniae; [13]): 22 mg/kg
ED50 (K. pneumoniae; [14]): 48 mg/kg
ED50 (K. pneumoniae; [15]): 17 mg/kg
LD50 (in vivo; ip): 3460 mg/kg
LD50 (in vivo; po): > 10000 mg/kg
LD50 (in vivo; sc): 10000 mg/kg
ED50 (S. pyogenes; po, Table 2, PO, mice): 1.5 mg/kg
ED50 (S. pyogenes; [16]): 1.5 mg/kg
ED50 (S. pyogenes; [7]): 0.82 mg/kg
ED50 (S. pyogenes; [8]): 0.08 mg/kg
ED50 (S. pyogenes; [9]): 0.3 mg/kg
ED50 (S. pyogenes; [10]): 0.16 mg/kg
ED50 (S. pyogenes; [11]): < 0.05 mg/kg
ED50 (S. pyogenes; [12]): 0.31 mg/kg
ED50 (S. pyogenes; [13]): < 0.01 mg/kg
ED50 (S. pyogenes; [14]): 0.11 mg/kg
ED50 (S. pyogenes; [15]): 0.07 mg/kg
